Laboratory results reported in patent publication US10959998B2, “Pharmaceutical use and pharmaceutical composition of pyrroloquinoline quinine, its derivatives and/or its salts” (priority 2015, dated 2021).
Marks after values point to notes of the source that are not given here.

Columns and labels:
[1] = tested on: endometrial stromal cells; assay: Scratch test (scratch healing, cell migration); assay type: cell-based, human; details: for scratch healing: P<0.05
Method: Before the cells were plated, horizontal lines were scratched on the back of 24-well plate using a blade with the guide of a ruler. For each well, three evenly distributed lines which horizontally crossed the well were scratched. Two days after transfection, the cell fusion rate reached 90%. The wound were created by scratching on the cell layer with micropipette tip in a direction perpendicular to the lines on the back of the plate with the aid of ruler. During the operation, the micropipette tip should be kept perpendicular to the plate, and not tilt to one side. The cells were washed for three times with PBS to remove the exfoliated cells after being scratched, and 1640 culture medium supplemented with 2% FBS was added to the cells. The cells were cultured in an incubator at 37° C., in an air atmosphere containing 5% CO2. The cells were photographed in the same field of view at each indicated time point.

[2] = tested on: infiltration of endometrial stroma and glands into myometrium; assay: Adenomyosis mouse model created with tamoxifen, pathological section; assay type: in vivo, mice
Method: Disodium salt of PQQ was used in the present experiment (PQQ-Na2, donated by MITSUBISHI gas chemical (MGC), Japan). The salt was dissolved with water and the concentration of its mother liquid is 1 mg/mL.
In the present Example, the mouse model of adenomyosis was created with tamoxifen. This method is easy to operate, the rate of molding can reach 100%, and the difference between the model mouses caused by the operation is small. At 2˜5 days after birth (the birth day was the first day), the mice were fed with 5 ul/(g·BW) peanut oil/lecithin/condensed milk mixture (volume ratio 2:0.2:3) supplemented with 0.2 mg/ml tamoxifen (produced by shanghai Fudan Fuhua Pharmaceutical Co, Ltd.) by drip feeding. In the negative control group, the mice were fed with peanut oil/lecithin/condensed milk mixture (volume ratio 2:0.2:3), with no tamoxifen added. All the mice were exposed to light for 12 h/day, and were reared by maternal lactation during 1-21 days of age. After 22 days of birth, the mice were separated with mother mice, and the female mice were reserved for the next experiment.
After 3 months, 7 model mice were killed after anesthesia. […] The remaining model mice were divided into 5 groups with 20 mice in each group. One of the groups was chosen as model control group (fed with normal water). The drinking water for other group were supplemented with PQQ (1 mg/kg/day), NAC (10 mg/kg/day), PQQ (1 mg/kg/day) +NAC (10 mg/kg/day) (denoted by P+N (H)); PQQ (0.2 mg/kg/day) +NAC (5 mg/kg/day) (denoted by P+N (L)).
After treatment with drugs for 4 weeks, the mice were killed by anesthesia. The uterus was surgically removed and the invasion of endometria into myometrium was analyzed by the pathological section.

[3] = tested on: ectopic endometrial stromal cells; assay: MTT cell proliferation of ectopic endometrial stromal cells; assay type: cell-based, human
Method: Endometrial tissues were surgically isolated from patients with chocolate cyst of ovary, washed 2 to 3 times with PBS supplemented with antibiotics in ultra-clean cabinet, and cut into tiny pieces (about 1 mm^3 in size) with aseptic scissors. The tissues were digested with 1 mg/ml collagenase type I for 30 to 90 min at 37° C., and continually digested with Dnase I (final concentration of 15 U/ml, 2% Dnase I) for another 30 min. The digested tissues were filtered thorough 60-mesh stainless steel filter cell strainer to remove the undigested cell tissues, and were further filtered with 200- or 400-mesh strainer. The filtered solution was centrifuged at 1000 rpm for 5 min. After removing the supernatants, the cells were washed once with culture medium compounded by DMEM/F12 (1:1 v/v) and 10% fetal bovine serum, re-suspended in the culture medium, and seeded in 6-well tissue culture plate or T25 tissue culture flasks with an appropriate density. After 24 hours incubation, the culture medium was changed to remove the non-adherent blood cells, endothelial cells, macrophages and other miscellaneous cells. After primary human endometrial stromal cells were grown to reach 90% confluence, the cells were digested with 0.25% trypsin for 4 to 6 min, and then subcultured with a split ratio of 1:2 to 1:3. Vimentin which expresses specifically in stromal cells was detected by immuno-fluorescence to measure the cell purity. The cells of purity >95% were used in the following experiments. Primary ectopic endometrial stromal cells of human were subcultured and the subcultured cells of the 3th to 6th passages were chosen as experimental subjects. The cells in logarithmic growth phase were […] and incubated in the cell culture plate at a density of 50%˜60% (i.e. 2×10^4 cells/well). After growing adherent on the wall for 24 hours, the cultured cells were divided into groups and each group was given different doses of PQQ. 20 μL MTT (5 mg/ml in PBS, pH=7.4) was added to each well at indicated time points. The cells were incubated in an incubator at 37° C. in a 5% CO2 atmosphere for 4 h. At the end of incubation, the culture supernatant in each cell was carefully aspirated away. 150 μL DMSO was added to each well. Then the wells were shaken with Orbital shaker for 10 min. The absorbance of each cell was detected at wavelength 490 nm. Finally, the cell proliferation curve was drawn. Primary ectopic endometrial stromal cells were cultured and the subcultured cells of the 3th to 6th passage were chosen as experimental subjects. The cells in logarithmic growth phase were […] and incubated in the cell culture plate at a of 50%˜60% (e.g. 2×10^4 cells/well). The cells grew adhering to the wall for 24 hours before being treated with drugs. The cells were divided into groups and each group was given different dose of PQQ. At indicated time point, 20 μL […] (5 mg/ml in PBS, pH=7.4) was added to every well. The cells were then incubated in an incubator at 37° C. in a 5% CO2 atmosphere for 4 h. After terminating incubation, the culture supernatant in each cell was carefully aspirated away, but formazan crystals should not be aspirated away in any case. 150 μL DMSO was added to each well respectively. All the wells were shaken with Orbital shaker for 10 min to make the crystals adequately solubilized. The absorbance of each cell was detected at wavelength 490 nm. Finally, the cell proliferation curve was drawn.

[4] = cited from earlier work
[5] = 4 weeks in drinking water, PQQ (disodium salt) 1 mg/kg/day, NAC 10 mg/kg/day, P+N (H) 1+10, P+N (L) 0.2+5 mg/kg/day

With O=C(O)c1cc(C(=O)O)c2c(n1)C(=O)C(=O)c1cc(C(=O)O)[nH]c1-2 [PQQ, pyrroloquinoline quinone] the “migration of endometrial cells (scratch healing)” value ([1]; PQQ 30 nM, P>0.05) was “partially restrain the migration of the endometrial cells”, the scratch healing ([1]; PQQ 300 nM) was “significantly inhibit scratch healing” and the “scratch coverage rate lower than in the control group” value ([1]; PQQ 3 μM, 72 h) was 42%. The scratch healing ([1]; PQQ 3 μM) was “significantly inhibit scratch healing”, the “infiltration of endometrial glands, positive animals/total animals” value [2, 5] was 9/20*# and the “infiltration of endometrial stroma, positive animals/total animals” value [2, 5] was 10/20*#. The “number of animals with infiltration of endometrial stroma and glands compared with model control group” value ([2]; after 4 weeks treatment, PQQ as disodium salt) was “evidently lower than that in the model control group”, the “cell proliferation compared with the control group” value ([3]; PQQ 3 um, from 48 h after drug treatment, p<0.01) was “significantly inhibit cell proliferation” and the “cell proliferation compared with the control group” value ([3]; PQQ 30 nm, p>0.05) was “a certain inhibitory effect, but not significant”. For the same molecule, the “cell proliferation compared with the control group” value ([3]; PQQ 300 nm, from 48 h after drug treatment, p<0.01) was “significantly inhibit cell proliferation”, the adverse reactions ([4]; mice fed 100 mg/kg body weight/day for 14 consecutive days) was “did not show any adverse reactions” and the half lethal dose ([4]; mice) was 1000-2000 mg/kg body weight/day.
